Marks after values point to notes of the source that are not given here.
What was measured:
[1] = Gravimetric Vapor Sorption (GVS) with XRPD re-analysis; type: physicochemical; details: for Reversible Water Uptake between 0-90% RH: GVS, 25° C.; for Solid State Form After GVS (XRPD): after isotherm experiment at 90% RH and 25° C.
Experimental: Sorption isotherms were obtained using a SMS DVS Intrinsic moisture sorption analyzer, controlled by DVS Intrinsic Control software. The sample temperature was maintained at 25° C. by the instrument controls. The humidity was controlled by mixing streams of dry and wet nitrogen, with a total flow rate of 200 ml/min. The relative humidity was measured by a calibrated Rotronic probe (dynamic range of 1.0-100% RH), located near the sample. The weight change, (mass relaxation) of the sample as a function of % RH was constantly monitored by a microbalance (accuracy ±0.005 mg).
Typically, 5-30 mg of sample was placed in a tared mesh stainless steel basket under ambient conditions. The sample was loaded and unloaded at 40% RH and 25° C. (typical room conditions). A moisture sorption isotherm was performed as outlined below (2 scans per complete cycle). The standard isotherm was performed at 25° C. at 10% RH intervals over a 0-90% RH range. Typically, a double cycle (4 scans) was carried out. Data analysis was carried out within Microsoft Excel using the DVS Analysis Suite.
The method for SMS DVS Intrinsic experiments is outlined in the following table:
Reversible water uptake for the crystalline forms and patterns as determined by Gravimetric Vapor Sorption (GVS) are as described in the following table:
The samples were recovered after completion of the isotherm experiment at […] and 25° C. and re-analyzed by XRPD.

[2] = Stability of solid state forms under static storage, re-analysed by XRPD; type: physicochemical
Experimental: Crystalline Form 1 of Compound II (4 g) was placed in a crystallization dish and stored in a stability chamber at 25° C./97% RH. XRPD analysis was regularly performed to verify the conversion to Form 2. Complete conversion was observed after 4 weeks at 25° C./97% RH.
Samples were assessed for stability under ambient or static storage conditions of 25° C./97% RH and 40° C./75% RH for 7 or 10 days. The samples were then re-analyzed by XRPD.
Results of the subsequent XRPD analysis for the crystalline forms are described in the following table: […]

[3] = Stability of solid forms on drying, vacuum or standing (XRPD); type: physicochemical
Experimental: Crystalline Hydrate Form 2 of Compound II was portioned into two and half was placed in the vacuum oven at RT. After 24 h the sample was analyzed by XRPD. Some small differences between the XRPD pattern and the Form 2 reference were noted. After 4 days in the vacuum oven complete conversion was observed.

[4] = Variable temperature XRPD (heating); type: physicochemical; details: heating to 110° C.
Experimental: For variable temperature (VT-XRPD) experiments the samples were prepared and analyzed in an Anton Paar chromed sample holder. A heating/cooling rate of 10° C./min was used with a 2 min isothermal hold before the measurement started. The measurement parameters are as per the standard screening data collection method (detailed above). Measurements were taken at the following temperatures: […]

[5] = tested on: mice; details: cited from earlier work

SMILES | Reversible Water Uptake between 0-90% RH [1] | Solid State Form After GVS (XRPD) [1] | solid state form by XRPD after storage ([2]; 25° C./97% RH/7 days) | solid state form by XRPD after storage ([2]; 40° C./75% RH/7 days) | solid form stability on drying [3] | other results
Cc1cc(OC/C=C(/c2ccc(F)cc2)c2ccc(C#CCN3CCOCC3)cc2)ccc1OCC(=O)[O-].[Na+] [Form 1, sodium (E)-2-(4-((3-(4-fluorophenyl)-3-(4-(3-morpholinoprop-1-yn-1-yl)phenyl)allyl)oxy)-2-methylphenoxy)acetate] | ~13.0% † | Unchanged (Form 1) | Form 2 | Unchanged (Form 1) |  | time to complete conversion to Form 2 ([2]; stability chamber at 25° C./97% RH, 4 g): 4 weeks
Cc1cc(OC/C=C(/c2ccc(F)cc2)c2ccc(C#CCN3CCOCC3)cc2)ccc1OCC(=O)[O-].[Na+] [Form 2, sodium (E)-2-(4-((3-(4-fluorophenyl)-3-(4-(3-morpholinoprop-1-yn-1-yl)phenyl)allyl)oxy)-2-methylphenoxy)acetate] | ~25% | Unchanged (Form 2) | Unchanged (Form 2) | Unchanged (Form 2) |  | time to complete conversion to Pattern 9 ([3]; vacuum oven at RT): 4 days
Cc1cc(OC/C=C(/c2ccc(F)cc2)c2ccc(C#CCN3CCOCC3)cc2)ccc1OCC(=O)[O-].[Na+] [Form 3, sodium (E)-2-(4-((3-(4-fluorophenyl)-3-(4-(3-morpholinoprop-1-yn-1-yl)phenyl)allyl)oxy)-2-methylphenoxy)acetate] | ~9.0% | Form 1 |  | Form 1 | converts to Form 1 | solid form stability on standing ([3]; standing in ambient conditions): converts to Form 1
Cc1cc(OC/C=C(/c2ccc(F)cc2)c2ccc(C#CCN3CCOCC3)cc2)ccc1OCC(=O)[O-].[Na+] [Form 4, sodium (E)-2-(4-((3-(4-fluorophenyl)-3-(4-(3-morpholinoprop-1-yn-1-yl)phenyl)allyl)oxy)-2-methylphenoxy)acetate] | ~23% | Form 2 | Form 2 | Form 1 |  | XRPD after heating [4]: unchanged XRPD
Cc1cc(OC/C=C(/c2ccc(F)cc2)c2ccc(C#CCN3CCOCC3)cc2)ccc1OCC(=O)[O-].[Na+] [Form 5, sodium (E)-2-(4-((3-(4-fluorophenyl)-3-(4-(3-morpholinoprop-1-yn-1-yl)phenyl)allyl)oxy)-2-methylphenoxy)acetate] | ~11% | Form 1 |  |  | converts to Form 1 | 
Cc1cc(SCc2sc(-c3ccc(C(F)(F)F)cc3)nc2C)ccc1OCC(=O)O [GW1516] |  |  |  |  |  | energy substrate usage ([5]; 8 weeks treatment): a clear shift in energy substrate usage from glucose to fatty acid oxidation; physical performance ([5]; in combination with exercise, 4 weeks): enhanced physical performance
Cc1cc(OC/C=C(/c2ccc(F)cc2)c2ccc(C#CCN3CCOCC3)cc2)ccc1OCC(=O)[O-].[Na+] [Pattern 5, sodium (E)-2-(4-((3-(4-fluorophenyl)-3-(4-(3-morpholinoprop-1-yn-1-yl)phenyl)allyl)oxy)-2-methylphenoxy)acetate] |  |  |  |  |  | solid form stability [3]: unstable
Cc1cc(OC/C=C(/c2ccc(F)cc2)c2ccc(C#CCN3CCOCC3)cc2)ccc1OCC(=O)[O-].[Na+] [Pattern 8, sodium (E)-2-(4-((3-(4-fluorophenyl)-3-(4-(3-morpholinoprop-1-yn-1-yl)phenyl)allyl)oxy)-2-methylphenoxy)acetate] |  |  |  |  | converts to Form 1 | 
Cc1cc(OC/C=C(/c2ccc(F)cc2)c2ccc(C#CCN3CCOCC3)cc2)ccc1OCC(=O)[O-].[Na+] [Pattern 9, sodium (E)-2-(4-((3-(4-fluorophenyl)-3-(4-(3-morpholinoprop-1-yn-1-yl)phenyl)allyl)oxy)-2-methylphenoxy)acetate] | ~27% | Unchanged (Pattern 9) |  |  |  | 
Cc1cc(OC/C=C(/c2ccc(F)cc2)c2ccc(C#CCN3CCOCC3)cc2)ccc1OCC(=O)[O-].[Na+] [amorphous, sodium (E)-2-(4-((3-(4-fluorophenyl)-3-(4-(3-morpholinoprop-1-yn-1-yl)phenyl)allyl)oxy)-2-methylphenoxy)acetate] |  |  |  |  |  | change in XRPD after storage ([2]; ambient storage conditions for 24 hours, 48 hours, 7 days, or 10 days): no change; change in XRPD after storage ([2]; static storage of 40° C./75% RH for 10 days): no change
